Source: patent US20240317735A1, “HYDROISOQUINOLINE OR HYDRONAPHTHYRIDINE COMPOUNDS FOR THE TREATMENT OF AUTOIMMUNE DISEASE” (Hoffmann-La Roche Inc., priority 2020, published 2024)

Experiments:
[1] = Human microsome stability assay; assay type: in vitro ADME; conditions: 1 μM test compound, 0.5 mg/mL liver microsomal protein, 37° C., pH 7.4
Outline: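 1 μM compound with 0.5 mg/mL human liver microsomes in 100 mM potassium phosphate pH 7.4, 37° C, started with NADPH-regenerating system after 10 min preincubation. Sampled at 0, 3, 6, 9, 15, 30 min, quenched in acetonitrile; parent remaining by LC-MS/MS, with no-NADPH controls.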

human TLR7 = molecular target: T1, human TLR7 (Homo sapiens, UniProt Q9NYK1); assay: HEK293-Blue-hTLR-7 cells assay (SEAP reporter, R848 stimulation); assay type: cell-based; conditions: HEK293-Blue-hTLR7 cells, R848, 20 hrs; read-out: HEK/hTLR7 IC50
T1 construct: host or cells: HEK293 (HEK-Blue hTLR7)
T1 sequence (Q9NYK1 27-1049): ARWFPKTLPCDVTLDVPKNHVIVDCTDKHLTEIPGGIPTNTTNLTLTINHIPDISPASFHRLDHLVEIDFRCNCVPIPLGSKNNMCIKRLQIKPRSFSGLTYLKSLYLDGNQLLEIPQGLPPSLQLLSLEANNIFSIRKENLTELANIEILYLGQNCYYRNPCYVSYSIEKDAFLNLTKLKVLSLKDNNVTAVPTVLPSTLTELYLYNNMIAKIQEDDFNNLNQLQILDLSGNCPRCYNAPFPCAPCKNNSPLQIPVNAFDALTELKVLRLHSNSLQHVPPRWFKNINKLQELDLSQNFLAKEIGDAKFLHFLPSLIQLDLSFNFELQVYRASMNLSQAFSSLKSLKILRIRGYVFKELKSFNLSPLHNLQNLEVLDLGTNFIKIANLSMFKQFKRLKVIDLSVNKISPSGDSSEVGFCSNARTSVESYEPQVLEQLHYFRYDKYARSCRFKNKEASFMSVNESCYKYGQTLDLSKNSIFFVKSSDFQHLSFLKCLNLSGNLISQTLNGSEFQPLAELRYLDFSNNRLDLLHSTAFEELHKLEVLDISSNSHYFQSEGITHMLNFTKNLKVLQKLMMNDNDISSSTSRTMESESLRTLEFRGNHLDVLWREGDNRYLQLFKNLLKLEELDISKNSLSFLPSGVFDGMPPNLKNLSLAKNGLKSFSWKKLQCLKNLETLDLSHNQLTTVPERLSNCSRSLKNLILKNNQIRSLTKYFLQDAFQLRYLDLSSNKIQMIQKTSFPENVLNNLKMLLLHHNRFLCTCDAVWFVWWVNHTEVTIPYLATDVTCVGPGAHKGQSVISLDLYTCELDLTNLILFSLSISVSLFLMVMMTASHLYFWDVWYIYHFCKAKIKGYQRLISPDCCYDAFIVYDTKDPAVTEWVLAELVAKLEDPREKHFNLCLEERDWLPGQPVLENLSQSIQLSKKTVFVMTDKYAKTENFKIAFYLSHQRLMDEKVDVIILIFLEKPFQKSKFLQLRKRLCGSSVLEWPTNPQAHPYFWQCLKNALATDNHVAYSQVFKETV
Outline: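 Stable HEK293-Blue-hTLR7 cells (NF-κB/AP-1-driven SEAP reporter) were co-incubated with serially diluted compound (1% DMSO final) and R848 for 20 hrs at 37 °C. Supernatant SEAP was developed with QUANTI-Blue substrate for 2 hrs at 37 °C and absorbance read at 620–655 nm; antagonism seen as reduced reporter signal.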

| SMILES | Clearance of Human microsome [1] [mL/min/kg] | IC50 (human TLR7) [nM] |
| --- | --- | --- |
| C[C@H]1CN(c2ccnc3c2cnn3C)Cc2ccc(N3CC4(CNC4)CC3=O)cc21 [Example 34, 6-[(4R)-4-methyl-2-(1-methylpyrazolo[3,4-b]pyridin-4-yl)-3,4-dihydro-1H-isoquinolin-6-yl]-2,6-diazaspiro[3.4]octan-7-one] | 10.1 | 26 |
| C[C@H]1CN(c2ccnc3c2cnn3C)Cc2ccc(OC[C@@H]3CNCCN3C=O)cc21 [Example 45, (2S)-2-[[(4R)-4-methyl-2-(1-methylpyrazolo[3,4-b]pyridin-4-yl)-3,4-dihydro-1H-isoquinolin-6-yl]oxymethyl]piperazine-1-carbaldehyde] | 10.4 | 12 |
| Cc1cc(N2Cc3ccc(N4CCC(C)(N)CC4)nc3[C@@H](C)C2)c2cnn(C)c2n1 [Example 59, 4-methyl-1-[(8S)-6-(1,6-dimethylpyrazolo[3,4-b]pyridin-4-yl)-8-methyl-7,8-dihydro-5H-1,6-naphthyridin-2-yl]piperidin-4-amine] | 9.4 | 2 |
| CO[C@@H]1CN(c2ccc3c(c2)[C@@H](C)CN(c2cc(C)nc4c2cnn4C)C3)C[C@H]1N [Example 23, (3R,4R)-4-methoxy-1-[(4R)-2-(1,6-dimethylpyrazolo[3,4-b]pyridin-4-yl)-4-methyl-3,4-dihydro-1H-isoquinolin-6-yl]pyrrolidin-3-amine] | 7.5 | 5 |
| C[C@H]1CN(c2ccnc3c2cnn3C)Cc2ccc(N3CCN[C@@H](CO)C3)cc21 [Example 50, [(2R)-4-[(4R)-4-methyl-2-(1-methylpyrazolo[3,4-b]pyridin-4-yl)-3,4-dihydro-1H-isoquinolin-6-yl]piperazin-2-yl]methanol] | 6.2 | 10 |

Further lines, results first:

| Clearance of Human microsome [1] [mL/min/kg] | IC50 (human TLR7) [nM] | SMILES |
| --- | --- | --- |
| 9.8 | 8 | Cc1cc(N2Cc3ccc(N4CCNCC4)nc3[C@@H](C)C2)c2cnn(C)c2n1 [Example 66, (8S)-6-(1,6-dimethylpyrazolo[3,4-b]pyridin-4-yl)-8-methyl-2-piperazin-1-yl-7,8-dihydro-5H-1,6-naphthyridine] |
| 10.5 | 11 | Cc1cc(N2Cc3ccc(N4CCN(C)CC4)nc3[C@@H](C)C2)c2cnn(C)c2n1 [Example 67, (8S)-6-(1,6-dimethylpyrazolo[3,4-b]pyridin-4-yl)-8-methyl-2-(4-methylpiperazin-1-yl)-7,8-dihydro-5H-1,6-naphthyridine] |
| 9.2 | 6 | Cc1cc(N2Cc3cnc(N4CCNCC4)cc3[C@@H](C)C2)c2cnn(C)c2n1 [Example 74, (4R)-2-(1,6-dimethylpyrazolo[3,4-b]pyridin-4-yl)-4-methyl-6-piperazin-1-yl-3,4-dihydro-1H-2,7-naphthyridine] |
| 6.3 | 4 | CO[C@H]1CN(c2cc3c(cn2)CN(c2cc(C)nc4c2cnn4C)C[C@@H]3C)CC[C@@H]1N [Example 73, (3S,4S)-3-methoxy-1-[(5R)-7-(1,6-dimethylpyrazolo[3,4-b]pyridin-4-yl)-5-methyl-6,8-dihydro-5H-2,7-naphthyridin-3-yl]piperidin-4-amine] |
| 7.0 | 5 | Cc1cc(N2Cc3ccc(OC4CCNCC4)nc3[C@@H](C)C2)c2cnn(C)c2n1 [Example 64, (8S)-6-(1,6-dimethylpyrazolo[3,4-b]pyridin-4-yl)-8-methyl-2-(4-piperidyloxy)-7,8-dihydro-5H-1,6-naphthyridine] |
| 8.1 | 36 | Cc1cc(N2Cc3ccc(N4CCOC5(CNC5)C4)nc3[C@@H](C)C2)c2cnn(C)c2n1 [Example 70, 8-[(8S)-6-(1,6-dimethylpyrazolo[3,4-b]pyridin-4-yl)-8-methyl-7,8-dihydro-5H-1,6-naphthyridin-2-yl]-5-oxa-2,8-diazaspiro[3.5]nonane] |
